Results: patent publication US20240325370A1, “THERAPEUTIC REGIMENS OF A DEGRADER OF BRD9” (FOGHORN THERAPEUTICS INC., priority 2021, published 2024)
Read-outs that look alike come from different tables or passages of the source.

How the values were obtained:
[1] = Interconversion between Enantiomer 1 and Enantiomer 2 in cell medium; assay type: physicochemical; conditions: Enantiomer 1 dosing, cell medium 37° C.; for Mean peak area ratio of Enantiomer 2 over Enantiomer 1 peak area ratio: 0.2 µM
Procedure: For the assessment of interconversion between Enantiomer 1 and Enantiomer 2 in cell medium, the following test was performed. […] At designated time point, aliquot (50 μL) was taken and processed by the addition of 150 μL of acetonitrile containing 0.1% formic acid and internal standard for LC/MS-MS analysis. Peak areas of both Enantiomer 1 and Enantiomer 2 were determined for each sample using a chiral specific analytical method.

[2] = molecular target: T1, BRD9 (Homo sapiens, UniProt Q9H8M2); assay: BRD9 degradation by western blot in synovial sarcoma cells (SYO-1, ASKA); assay type: cell-based; conditions: 30 minutes, up to 10 µM
T1 sequence (Q9H8M2 1-597): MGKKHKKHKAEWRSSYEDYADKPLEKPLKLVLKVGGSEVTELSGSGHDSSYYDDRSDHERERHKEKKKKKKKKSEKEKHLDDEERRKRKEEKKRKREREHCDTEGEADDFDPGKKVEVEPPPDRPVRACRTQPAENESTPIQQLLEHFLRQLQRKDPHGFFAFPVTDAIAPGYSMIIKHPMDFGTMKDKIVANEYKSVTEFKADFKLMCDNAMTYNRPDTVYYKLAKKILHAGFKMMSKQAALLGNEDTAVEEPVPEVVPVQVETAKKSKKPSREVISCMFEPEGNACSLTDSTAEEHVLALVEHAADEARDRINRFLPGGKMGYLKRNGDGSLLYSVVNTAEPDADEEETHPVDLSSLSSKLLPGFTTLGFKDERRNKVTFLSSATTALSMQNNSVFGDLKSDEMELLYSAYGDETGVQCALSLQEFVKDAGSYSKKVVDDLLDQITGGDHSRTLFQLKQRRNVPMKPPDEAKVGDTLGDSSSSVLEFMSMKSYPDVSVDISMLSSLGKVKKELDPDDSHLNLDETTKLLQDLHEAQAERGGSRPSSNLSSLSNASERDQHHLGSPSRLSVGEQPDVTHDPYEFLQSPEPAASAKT

[3] = molecular target: T1, BRD9; assay: Pharmacodynamic activity in SYO-1 xenograft model (tumor BRD9 western blot); assay type: in vivo, mice; set-up: from tissue; host or cells: SYO-1 xenograft tumours in BALB/c nude or NOD SCID mice; conditions: SYO-1 xenograft, BALB/c Nude mice; single dose i.v. (Table 6)
Procedure: Method. The SYO-1 tumor cells were maintained in vitro as adherent cells in Dulbecco's Modified Eagle Medium (DMEM) supplemented with 10% fetal bovine serum at 37° C. in an atmosphere of 5% CO2 in air. The cells growing in an exponential growth phase were harvested and counted for tumor inoculation. BALB/c Nude mice (Shanghai Lingchang biological science) were inoculated subcutaneously on the right flank with (5×10^6) in 0.1 mL of phosphate buffered saline (PBS). The treatment-(described in table 6)—was started on day 19 after tumor inoculation, when the average tumor size reached 499 mm^3.
Mice were treated with racemic D1, 1 mg/kg, i.p. for 4 weeks, mice were euthanized, and tumors collected 1, 4, 8, 24, 48 and 72-hour post last dose. Tumors were lysed with 1×RIPA lysis buffer (Boston BioProducts, BP-115D) with protease and phosphatase protein inhibitor (Roche Applied Science #04906837001 & 05892791001). Equal amount of lysate (30 ug) were loaded in 4-12% Bis-Tris Midi Protein Gels in 1×MOPS buffer; samples ran at 120 V for 120 min. Proteins was transferred to membrane (NC) with TransBlot at 250 mA for 150 minute, then membranes were blocked with Odyssey Blocking buffer for 1 hour at room temperature. Membranes were hybridized overnight in cold room with primary antibodies. Images acquired using Li-COR imaging system (Li-COR Biotechnology, Lincoln, Nebraska).
Further study. The other study examined a range of compound D1 dose levels (0.05, 0.25, 1 or 5 mg/kg) formulated in a vehicle of 20% SBECD for tumor BRD9 protein levels up to 144 hours post dose. […] BRD9 protein levels were still depleted by 83.4% and 73.2% at 120 hours (5 days) and 144 hours (6 days), respectively, after a single IV administration of 5 mg/kg of compound D1, which corresponds to ˜2.5 mg/kg of compound S-D1.

[4] = molecular target: T1, BRD9; assay: BRD9 degradation by western blot in synovial sarcoma cells (SYO-1, ASKA); assay type: cell-based; conditions: for DC50: read-out: Fitted DC50
Procedure: Method. Synovial sarcoma cells were plated in 6-well plate at […] cells/well and treated with serial concentrations of BRD9 degrader (10 nM top concentration, diluted 1:3) the next day for two time points at 37° C. Cells were then harvested, washed with cold PBS, and frozen in cell pellets at −80° C. Lysates were prepared by resuspending thawed pellets in 1×RIPA Lysis and Extraction buffer (Thermo Fisher, Cat #89900) with 1× Halt™ Protease and Phosphatase Inhibitor Cocktail, EDTA-free (Thermo Fisher, Cat #78441) and 1:1000 dilution Pierce™ Universal Nuclease for Cell Lysis 25ku (Thermo Fisher, Cat #88700). Lysates were incubated on ice for 10 minutes and then centrifuged in 4° C. at maximum speed (15,000 rpm) for 10 minutes. Samples were then analyzed for total protein using BCA protein quantification assay and diluted to 1 ug/μL with lysis buffer and 1× NuPAGE™ LDS Sample Buffer (4×) (Thermo Fisher, Cat #NP0007) and 1×DTT from 30× stock (Cell Signaling Technologies, Cat #14265S). Samples with 20-25 ug of total protein were loaded into 4-12% Bis-Tris Mini-Gel with 1×MES Running buffer and run at 150V for 45 minutes. Gels were transferred using Trans-Blot® Turbo™ Transfer System (semi-dry) at 25V for 10 minutes (High MW setting) on nitrocellulose blots. Blots were blocked in 5% milk in TBST for 1 hour and probed with BRD9 antibody (Bethyl Labs, Cat #A303-781A, 1:750 for SYO1, and Cell Signaling Technologies, Cat #71232S for ASKA) and beta-Actin antibody (Cell Signaling Technologies, Cat #3700, 1:2000) overnight at 4° C. The next day, blots were washed in TBST 3× and probed with 1:5000 IRDye® 680LT Goat anti-Rabbit IgG Secondary Antibody (LICOR, Cat #926-68021) and 1:10000 IRDye® 800CW Goat anti-Mouse IgG Secondary Antibody (LiCOR, Cat #926-32210) in LiCOR Odyssey® Blocking Buffer (TBS) for 1 hour at room temperature. Blots were washed in TBST 3× and scanned at […] wavelength using LiCOR Odyssey® CLx Imaging System. Western blot signal was quantified using same analyses program included in the same machine. BRD9 signal was quantified by normalizing to beta-actin signal and all samples were normalized to DMSO, set as 100% signal.

Mean peak area ratio of Enantiomer 2 over Enantiomer 1 peak area ratio ([1]; 0 h): 0.0 | Mean peak area ratio of Enantiomer 2 over Enantiomer 1 peak area ratio ([1]; 0.5 h): 0.0 | Mean peak area ratio of Enantiomer 2 over Enantiomer 1 peak area ratio ([1]; 2 h): 0.13 | Mean peak area ratio of Enantiomer 2 over Enantiomer 1 peak area ratio ([1]; 6 h): 0.43 | % Enantiomer 2 ([1]; 2 h): 12% | % Enantiomer 2 ([1]; 6 h): 30% | BRD9 degradation activity [2]: no discernable activity | DC50 ([4]; ASKA, 0.5 h): > 10 nM | DC50 ([4]; ASKA, 2 h): 0.38 nM | DC50 ([4]; SYO-1, 1 h): 2.8 nM | DC50 ([4]; SYO-1, 6 h): 0.066 nM
SMILES: COc1cc(-c2cn(C)c(=O)c3cnc(N4CCC4)cc23)cc(OC)c1CN1CCC(CN2CCC3(CC2)CN(c2ccc4c(c2)C(=O)N([C@@H]2CCC(=O)NC2=O)C4)C3)CC1 (single isomer, unassigned) [Enantiomer 1]
Pharmacodynamic activity: tumor BRD9 protein level by western blot [3]: inactive and did not degrade BRD9 protein | potency in degradation of endogenous BRD9 protein ([4]; two synovial sarcoma cell lines, early time point): largely inactive or with much reduced degradation potency
